From publication PMC8159961, “Exploring protein hotspots by optimized fragment pharmacophores” (Nature Communications, 2021)

Experiments:
human 5-HT1A receptor = biological target: T1, human 5-HT1A receptor (Homo sapiens, UniProt P08908); assay: GPCR radioligand binding assay, [3H]-8-OH-DPAT displacement, HEK293 membranes; conditions: for 5-HT1A % Inhibition by plate position: 10 µM; for %inh 5-HT1A average: average of exp_1 and exp_2; for %inh 5-HT1A exp_1: replicate exp_1; for %inh 5-HT1A exp_2: replicate exp_2; for %inh 5-HT1A corrected*: average, values below 0 and above 100% were set as 0 and 100
T1 construct: expressed in transfected cells
T1 sequence (P08908 1-422): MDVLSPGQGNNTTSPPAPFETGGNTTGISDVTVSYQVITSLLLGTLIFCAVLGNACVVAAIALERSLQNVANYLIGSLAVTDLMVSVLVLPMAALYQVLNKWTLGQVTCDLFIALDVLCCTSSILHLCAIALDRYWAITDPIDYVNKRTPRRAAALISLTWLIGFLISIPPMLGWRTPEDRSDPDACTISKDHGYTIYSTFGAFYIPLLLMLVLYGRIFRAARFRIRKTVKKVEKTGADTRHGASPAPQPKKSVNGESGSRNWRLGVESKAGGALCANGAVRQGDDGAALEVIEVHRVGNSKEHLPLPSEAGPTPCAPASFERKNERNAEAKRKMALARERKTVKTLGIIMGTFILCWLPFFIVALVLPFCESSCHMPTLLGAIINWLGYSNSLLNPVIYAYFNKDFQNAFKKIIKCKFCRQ

human 5-HT7b receptor = biological target: T2, human 5-HT7b receptor (Homo sapiens, UniProt P34969); assay: GPCR radioligand binding assay, [3H]-5-CT displacement, HEK293 membranes; conditions: for 5-HT7 % Inhibition by plate position: 10 µM; for %inh 5-HT7 average: average of exp_1 and exp_2; for %inh 5-HT7 exp_1: replicate exp_1; for %inh 5-HT7 exp_2: replicate exp_2
T2 construct: expressed in transfected cells

human 5-HT6 receptor = biological target: T3, human 5-HT6 receptor (Homo sapiens, UniProt P50406); assay: GPCR radioligand binding assay, [3H]-LSD displacement, HEK293 membranes; conditions: for 5-HT6 % Inhibition by plate position: 10 µM; for %inh 5-HT6 average: average of exp_1 and exp_2; for %inh 5-HT6 corrected*: average, values below 0 and above 100% were set as 0 and 100; for %inh 5-HT6 exp_1: replicate exp_1; for %inh 5-HT6 exp_2: replicate exp_2
T3 construct: expressed in transfected cells
T3 sequence (P50406 whole entry): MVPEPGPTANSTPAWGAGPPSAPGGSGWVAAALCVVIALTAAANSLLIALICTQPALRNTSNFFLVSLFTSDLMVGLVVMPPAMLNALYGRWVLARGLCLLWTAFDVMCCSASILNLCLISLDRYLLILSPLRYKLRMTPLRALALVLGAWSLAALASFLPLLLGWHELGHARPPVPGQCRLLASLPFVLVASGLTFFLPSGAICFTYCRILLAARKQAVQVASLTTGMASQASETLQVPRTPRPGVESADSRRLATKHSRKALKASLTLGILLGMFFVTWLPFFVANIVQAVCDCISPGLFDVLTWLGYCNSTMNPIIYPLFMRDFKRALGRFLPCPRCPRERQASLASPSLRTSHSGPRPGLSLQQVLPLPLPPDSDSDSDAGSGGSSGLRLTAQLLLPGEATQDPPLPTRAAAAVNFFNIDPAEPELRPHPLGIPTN

T2 sequence (P34969 1-432): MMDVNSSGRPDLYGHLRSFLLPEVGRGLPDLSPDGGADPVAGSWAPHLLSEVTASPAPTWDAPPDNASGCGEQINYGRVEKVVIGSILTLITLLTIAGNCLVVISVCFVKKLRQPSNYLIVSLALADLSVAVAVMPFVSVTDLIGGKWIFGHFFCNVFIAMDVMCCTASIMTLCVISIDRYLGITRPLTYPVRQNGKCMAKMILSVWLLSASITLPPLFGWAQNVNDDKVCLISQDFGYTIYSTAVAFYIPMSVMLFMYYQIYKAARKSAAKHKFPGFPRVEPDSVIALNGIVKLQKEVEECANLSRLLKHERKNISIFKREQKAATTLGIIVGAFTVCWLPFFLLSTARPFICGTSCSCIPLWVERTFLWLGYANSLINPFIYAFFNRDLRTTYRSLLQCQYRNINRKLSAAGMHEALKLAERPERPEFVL

| SMILES | 5-HT1A % Inhibition by plate position (human 5-HT1A receptor) [%] | %inh 5-HT1A average (human 5-HT1A receptor) [%] | %inh 5-HT1A exp_1 (human 5-HT1A receptor) [%] | %inh 5-HT1A exp_2 (human 5-HT1A receptor) [%] | 5-HT7 % Inhibition by plate position (human 5-HT7b receptor) [%] | %inh 5-HT7 average (human 5-HT7b receptor) [%] | %inh 5-HT7 exp_1 (human 5-HT7b receptor) [%] | %inh 5-HT7 exp_2 (human 5-HT7b receptor) [%] | 5-HT6 % Inhibition by plate position (human 5-HT6 receptor) [%] | %inh 5-HT6 average (human 5-HT6 receptor) [%] | %inh 5-HT6 corrected* (human 5-HT6 receptor) [%] | %inh 5-HT6 exp_1 (human 5-HT6 receptor) [%] | %inh 5-HT6 exp_2 (human 5-HT6 receptor) [%] | %inh 5-HT1A corrected* (human 5-HT1A receptor) [%] |
| --- | --- | --- | --- | --- | --- | --- | --- | --- | --- | --- | --- | --- | --- | --- |
| CN1CC(=O)NC1=O [B10] | 0 | -4.34 | 4 | -13 | 0 | -7.6 | -15 | 0 | 35 | 35 | 35 | 31 | 40 |  |
| Cc1cc(N)no1 [B11] | 0 | -21 | -18 | -24 | 1.49 |  | -8 | 11 | 37 | 37 | 37 | 40 | 34 |  |
| Fc1ccc(CC2CCCNC2)cc1 (centres unmarked) [C1] |  | 21 | 23 | 19 | 22 |  | 27 | 18 | 42 | 42 | 42 | 47 | 37 | 21 |
| c1ccc(-c2ccncc2)cc1 [C2] | 0 | -6 | -11 | 0 | 6 |  | 14 | -2 | 36 | 36 | 36 | 32 | 40 |  |
| NC(c1ccccc1)c1ccccc1 [C3] | 0 | -12 | -22 | -1.84 | 0 | -9 | -16 | -1 | 25 | 25 | 25 | 16 | 33 |  |
| c1ccc2c(N3CCNCC3)ccnc2c1 [C4] |  | 81 | 78 | 83 | 16 |  | 17 | 15 | 72 | 72 | 72 | 71 | 72 | 81 |
| O=c1ccc2c([nH]1)CCCC2 [C5] | 0 | -1.35 | -18 | 15 | 1 |  | 0.605 | 1.43 | 46 | 46 | 46 | 39 | 53 |  |
| CC1(C)OC(=O)c2cc(Br)c(O)cc2O1 [C6] | 0 | -0.191 | -7.5 | 7 | 0.891 |  | 1.78 | 0 | 56 | 56 | 56 | 67 | 45 |  |
| CC(=O)c1ccc2c(c1)CCCN2 [C7] |  | 2.29 | -2 | 6.6 | 0 | -16 | -14 | -18 | 9 | 9 | 9 | 10 | 8 | 2.29 |
| CC(=O)c1ccc2c(c1)CNCC2 [C8] | 0 | -13 | -22 | -3.26 | 4 |  | 8 | 0 | 2.55 | 2.55 | 2.55 | 6 | -1 |  |
| O=C1NC2(CCCC2)Nc2ccccc21 [C9] | 0 | -0.0168 | 4.43 | -4.46 | 5 |  | -2.47 | 13 | 44 | 44 | 44 | 46 | 41 |  |
| O=c1[nH]c2c(s1)CCC2 [C10] | 0 | -4 | 2.56 | -11 | 0.592 |  | -6.56 | 8 | 42 | 42 | 42 | 44 | 39 |  |
| C1=C[C@H]2O[C@@H]1c1ccccc12 [C11] | 0 | -11 | -11 | -11 | 0 | -8 | -5.66 | -11 | 46 | 46 | 46 | 42 | 50 |  |
| N#Cc1ccc2ncsc2c1 [C12] |  | 5.41 | 11 | -0.546 | 0 | -7 | -6 | -8.5 | 35 | 35 | 35 | 39 | 32 | 5.41 |
